Data reported in publication doi:10.1101/713214v1 (biorxiv, 2019).

What was measured:
Type in all cases: biochemical
SaClpP = biological target: T1, SaClpP (Staphylococcus aureus, UniProt Q2G036); assay: fluorogenic peptidase assay, Suc-LY-AMC
T1 sequence (Q2G036 1-195): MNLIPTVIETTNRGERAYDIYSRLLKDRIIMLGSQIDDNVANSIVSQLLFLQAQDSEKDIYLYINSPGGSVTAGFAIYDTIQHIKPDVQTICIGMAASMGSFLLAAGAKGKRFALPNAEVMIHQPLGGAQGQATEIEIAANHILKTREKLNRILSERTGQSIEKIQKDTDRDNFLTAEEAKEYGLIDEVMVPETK

PaClpP1 = PaClpP1 (Pseudomonas aeruginosa, UniProt Q9I2U1); assay: fluorogenic peptidase assay, Suc-LY-AMC
MtbClpP1P2 = MtbClpP1P2 (Mycobacterium tuberculosis, UniProt P9WPC5); assay: fluorogenic peptidase assay, Z-Gly-Gly-Leu-AMC
hClpP = hClpP (Homo sapiens, UniProt Q16740); assay: fluorogenic peptidase assay, Suc-LY-AMC
EcClpP = EcClpP (Escherichia coli, UniProt P0A6G7); assay: fluorogenic peptidase assay, Suc-LY-AMC
Chain of EcClpP (P0A6G7 15-207): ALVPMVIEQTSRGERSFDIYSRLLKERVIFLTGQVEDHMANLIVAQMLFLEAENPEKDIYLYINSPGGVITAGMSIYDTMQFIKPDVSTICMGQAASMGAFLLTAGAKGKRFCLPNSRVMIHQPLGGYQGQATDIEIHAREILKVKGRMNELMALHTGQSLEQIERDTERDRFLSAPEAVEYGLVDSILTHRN

Chain of MtbClpP1P2 (P9WPC5 whole entry, looked up): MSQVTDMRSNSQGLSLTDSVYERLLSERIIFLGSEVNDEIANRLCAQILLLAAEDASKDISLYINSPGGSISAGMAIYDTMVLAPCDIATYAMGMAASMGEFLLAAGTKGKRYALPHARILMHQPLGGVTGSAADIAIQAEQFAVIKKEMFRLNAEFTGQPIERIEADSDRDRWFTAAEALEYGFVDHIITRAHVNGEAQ
Chain of hClpP (Q16740 58-277): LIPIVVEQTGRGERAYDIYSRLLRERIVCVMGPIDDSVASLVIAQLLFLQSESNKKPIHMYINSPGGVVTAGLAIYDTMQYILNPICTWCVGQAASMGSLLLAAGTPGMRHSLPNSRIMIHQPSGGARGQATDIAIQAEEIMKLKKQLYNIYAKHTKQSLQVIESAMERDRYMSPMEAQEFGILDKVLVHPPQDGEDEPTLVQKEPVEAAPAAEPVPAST
Chain of PaClpP1 (Q9I2U1 whole entry): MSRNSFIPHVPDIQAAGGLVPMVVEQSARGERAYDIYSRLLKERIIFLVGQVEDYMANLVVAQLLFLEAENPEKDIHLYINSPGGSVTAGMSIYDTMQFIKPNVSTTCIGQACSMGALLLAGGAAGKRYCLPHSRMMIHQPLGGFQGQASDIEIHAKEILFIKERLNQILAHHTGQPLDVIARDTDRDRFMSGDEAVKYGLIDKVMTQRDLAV

Structure (SMILES) | IC50 (SaClpP) | IC50 (PaClpP1) | IC50 (MtbClpP1P2) | IC50 (hClpP) | IC50 (EcClpP)
COc1cc2c(Oc3ccc4[nH]c(C)cc4c3F)ncnc2cc1OCCCN1CCCC1 [cediranib] | > 100 µM | > 100 µM | 3.4 ± 0.7 µM | 36.6 ± 0.5 µM | > 100 µM
Cc1cc2c(F)c(Oc3ncnn4cc(OC[C@@H](C)O)c(C)c34)ccc2[nH]1 [brivanib] | – | – | 12.5 µM | – | –
